Measured values reported in patent US4814348A, “Therapeutic compositions containing derivatives of acrylic acid having an oxygen-containing heterocycle, therapeutic treatment therewith and new compounds” (Roussel Uclaf, priority 1983, dated 1989).

How the values were obtained:
[1] = Acute oral toxicity (median lethal dose) in mice; settings: mouse, in vivo, oral administration
Procedure: The median lethal dose (LD50) was evaluated upon oral administration of the products to mice.

[2] = tested on: total acidity of the gastric secretions; test: Gastric antisecretory activity in pylorus-ligated rats (Shay technique); format: in vivo; settings: dose of 10 mg/kg, intraduodenal, male rats, 3 hours
Procedure: B. Determination of the gastric antisecretory activity
The technique used is described by H. Shay et al in Gastro. Enterology, 5 43 (1945).
Male rats are used of a weight of about 200 g, which had been deprived of food for 48 hours, but with 8% glucose solution ad libitum. The pylorus of the rats, which had been slightly anesthetized with ether, is ligated and then, upon the end of the operation, the product to be tested is administered in different doses or, in the case of the control animals, an 0.5% solution of carboxymethyl cellulose is administered intraduodenally, whereupon the abdominal incision is sutured.
Three hours later, the animals are sacrificed and their stomachs removed after ligation of the esophagus.
The gastric juice is removed and centrifuged. The volume is then noted and the total acidity is determined on 100 μl of gastric juice by titration to a pH of 7 by means of 1/100N caustic soda.
The percentages of variation of total acidity of the gastric secretions are calculated, as compared with the results obtained with the control animals.

O=C(O)C=CC(=O)c1cc2ccccc2o1 [Example 1, 4-(benzofuran-2-yl)-4-oxo-buten-2-oic acid]
LD50 [1]: 350 mg/kg
percentage of variation of total acidity of the gastric secretions as compared with control animals [2]: 53%

Cc1cc(O)c(C(=O)C=CC(=O)O)c(=O)o1 [Example 2, 4-(2-oxo-4-hydroxy-6-methyl-2H-pyran-3-yl)-4-oxo-buten-2-oic acid]
LD50 [1]: 350 mg/kg
percentage of variation of total acidity of the gastric secretions as compared with control animals [2]: 70%

O=C(O)C=CC(=O)c1ccco1 [Example 3, 4-(2-furyl)-4-oxo-buten-2-oic acid]
LD50 [1]: 750 mg/kg
percentage of variation of total acidity of the gastric secretions as compared with control animals [2]: 94%

Cc1nc(C(=O)/C=C/C(=O)O)c(C)o1 [Example 4, Trans 4-(2,5-dimethyl-oxazol-4-yl)-4-oxo-buten-2-oic acid]
LD50 [1]: 350 mg/kg
percentage of variation of total acidity of the gastric secretions as compared with control animals [2]: 77%

Cc1noc(C)c1C(=O)/C=C/C(=O)O [Example 5, Trans-4(3,5-dimethyl-isoxazol-4-yl)-4-oxo-buten-2-oic acid]
LD50 [1]: 350 mg/kg
percentage of variation of total acidity of the gastric secretions as compared with control animals [2]: 87%

Cc1ccc(C(=O)/C=C/C(=O)O)o1 [Example 6, Trans 4-(5-methyl-2-furyl)-4-oxo-2-butenoic Acid]
LD50 [1]: 350 mg/kg
percentage of variation of total acidity of the gastric secretions as compared with control animals [2]: 75%

Cc1cc(C(=O)/C=C/C(=O)O)c(C)o1 [Example 7, Trans 4-(2,5-dimethyl-3-furyl)-4-oxo-2-butenoic Acid]
LD50 [1]: 350 mg/kg
percentage of variation of total acidity of the gastric secretions as compared with control animals [2]: 45%
